{
  "source": "patent US10202361B2",
  "about": "“Pyridazinones as herbicides” (E I DU PONT DE NEMOURS AND COMPANY, priority 2014, dated 2019)",
  "assay_type_in_all_cases": "in vivo",
  "key": {"[1]": {"tested_on": "barnyardgrass (Echinochloa crus-galli)", "experiment": "Test A pre-/postemergence greenhouse herbicide test", "conditions": "Echinochloa crus-galli, 240 h, 0 to 100 scale (0 no effect, 100 complete control), approx. 10 d, read-out: Plant response rating, Barnyardgrass; for pest or weed control at 125 g/ha: 125 g ai/ha; for pest or weed control at 500 g/ha: 500 g ai/ha", "method_in_brief": "(§1)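 Greenhouse pre- and postemergence treatment in loam/sand soil, test chemicals in non-phytotoxic solvent with surfactant; postemergence plants 2–10 cm, one- to two-leaf stage. Visual injury rated after approximately 10 d versus untreated controls, 0 (no effect) to 100 (complete control).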"}, "corn (Zea mays)": {"tested_on": "corn (Zea mays)", "experiment": "Test A pre-/postemergence greenhouse herbicide test", "conditions": "Zea mays, 240 h, 0 to 100 scale (0 no effect, 100 complete control), approx. 10 d; for Corn plant response rating (crop injury, 0 = no effect, 100 = complete kill) at 125 g/ha: 125 g ai/ha; for Corn plant response rating (crop injury, 0 = no effect, 100 = complete kill) at 500 g/ha: 500 g ai/ha", "method_in_brief": "as §1"}, "[2]": {"tested_on": "pigweed (Amaranthus retroflexus)", "experiment": "Test A pre-/postemergence greenhouse herbicide test", "conditions": "Amaranthus retroflexus, 240 h, 0 to 100 scale (0 no effect, 100 complete control), approx. 10 d, read-out: Plant response rating, Pigweed; for pest or weed control at 125 g/ha: 125 g ai/ha; for pest or weed control at 500 g/ha: 500 g ai/ha", "method_in_brief": "as §1"}, "[3]": {"tested_on": "blackgrass (Alopecurus myosuroides)", "experiment": "Test C pre-/postemergence greenhouse herbicide test", "conditions": "Alopecurus myosuroides, Blackgrass, read-out: Plant response rating; for pest or weed control at 31 g/ha: 31 g ai/ha; for pest or weed control at 62 g/ha: 62 g ai/ha; for pest or weed control at 125 g/ha: 125 g ai/ha; for pest or weed control at 250 g/ha: 250 g ai/ha", "method_in_brief": "(§2)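 Seeds in loam–sand blend sprayed preemergence, and 1- to 4-leaf plants (2–18 cm) sprayed postemergence, with compounds in non-phytotoxic solvent plus surfactant. Visual rating versus controls after 13–15 d in greenhouse, 0 (no effect) to 100 (complete control).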"}, "[4]": {"tested_on": "johnsongrass (Sorghum halepense)", "experiment": "Test C pre-/postemergence greenhouse herbicide test", "conditions": "Sorghum halepense, Johnsongrass, read-out: Plant response rating; for pest or weed control at 31 g/ha: 31 g ai/ha; for pest or weed control at 62 g/ha: 62 g ai/ha; for pest or weed control at 125 g/ha: 125 g ai/ha; for pest or weed control at 250 g/ha: 250 g ai/ha", "method_in_brief": "as §2"}, "[5]": {"tested_on": "morningglory (Ipomoea coccinea)", "experiment": "Test C pre-/postemergence greenhouse herbicide test", "conditions": "Morningglory", "method_in_brief": "as §2"}, "[6]": {"tested_on": "oat, wild (wild oat, Avena fatua)", "experiment": "Test C pre-/postemergence greenhouse herbicide test", "conditions": "Postemergence", "method_in_brief": "as §2"}, "[7]": {"tested_on": "pigweed (Amaranthus retroflexus)", "experiment": "Test C pre-/postemergence greenhouse herbicide test", "conditions": "Amaranthus retroflexus, Pigweed, read-out: Plant response rating; for pest or weed control at 62 g/ha: 62 g ai/ha; for pest or weed control at 125 g/ha: 125 g ai/ha; for pest or weed control at 250 g/ha: 250 g ai/ha", "method_in_brief": "as §2"}, "[8]": {"tested_on": "ragweed (common ragweed, Ambrosia elatior)", "experiment": "Test C pre-/postemergence greenhouse herbicide test", "conditions": "Ambrosia artemisiifolia, Ragweed, read-out: Plant response rating; for pest or weed control at 31 g/ha: 31 g ai/ha; for pest or weed control at 62 g/ha: 62 g ai/ha; for pest or weed control at 125 g/ha: 125 g ai/ha; for pest or weed control at 250 g/ha: 250 g ai/ha", "method_in_brief": "as §2"}, "[9]": {"tested_on": "wheat (winter wheat, Triticum aestivum)", "experiment": "Test C pre-/postemergence greenhouse herbicide test", "conditions": "Triticum aestivum, Wheat, read-out: Plant response rating; for plant injury at 62 g/ha: 62 g ai/ha; for plant injury at 125 g/ha: 125 g ai/ha; for plant injury at 250 g/ha: 250 g ai/ha", "method_in_brief": "as §2"}},
  "note": "Where two headings read alike, the source gives them in different places.",
  "data": [
    {"smiles": "COc1cc(=O)n(-c2ccc(F)cc2)nc1Cc1ccnc(C(F)(F)F)c1", "note": "[Compound 17, 2-(4-fluorophenyl)-5-methoxy-6-[[2-(trifluoromethyl)-4-pyridinyl]methyl]-3 (2H)-pyridazinone]", "values": [
      {"measurement": "pest or weed control at 125 g/ha", "setting": "[1]; post-emergence, Postemergence", "value": 80, "unit": "%"},
      {"measurement": "pest or weed control at 500 g/ha", "setting": "[1]; post-emergence, Postemergence", "value": 90, "unit": "%"},
      {"measurement": "pest or weed control at 125 g/ha", "setting": "[1]; pre-emergence, Preemergence", "value": 80, "unit": "%"},
      {"measurement": "pest or weed control at 500 g/ha", "setting": "[1]; pre-emergence, Preemergence", "value": 100, "unit": "%"},
      {"measurement": "Corn plant response rating (crop injury, 0 = no effect, 100 = complete kill) at 125 g/ha", "setting": "corn (Zea mays); post-emergence, Postemergence", "value": 60, "unit": "%"},
      {"measurement": "Corn plant response rating (crop injury, 0 = no effect, 100 = complete kill) at 500 g/ha", "setting": "corn (Zea mays); post-emergence, Postemergence", "value": 80, "unit": "%"},
      {"measurement": "Corn plant response rating (crop injury, 0 = no effect, 100 = complete kill) at 125 g/ha", "setting": "corn (Zea mays); pre-emergence, Preemergence", "value": 40, "unit": "%"},
      {"measurement": "Corn plant response rating (crop injury, 0 = no effect, 100 = complete kill) at 500 g/ha", "setting": "corn (Zea mays); pre-emergence, Preemergence", "value": 50, "unit": "%"},
      {"measurement": "pest or weed control at 125 g/ha", "setting": "[2]; post-emergence, Postemergence", "value": 100, "unit": "%"},
      {"measurement": "pest or weed control at 500 g/ha", "setting": "[2]; post-emergence, Postemergence", "value": 100, "unit": "%"},
      {"measurement": "pest or weed control at 125 g/ha", "setting": "[2]; pre-emergence, Preemergence", "value": 100, "unit": "%"},
      {"measurement": "pest or weed control at 500 g/ha", "setting": "[2]; pre-emergence, Preemergence", "value": 100, "unit": "%"},
      {"measurement": "pest or weed control at 31 g/ha", "setting": "[3]; post-emergence, Postemergence", "value": 5, "unit": "%"},
      {"measurement": "pest or weed control at 62 g/ha", "setting": "[3]; post-emergence, Postemergence", "value": 5, "unit": "%"},
      {"measurement": "pest or weed control at 125 g/ha", "setting": "[3]; post-emergence, Postemergence", "value": 5, "unit": "%"},
      {"measurement": "pest or weed control at 250 g/ha", "setting": "[3]; post-emergence, Postemergence", "value": 5, "unit": "%"},
      {"measurement": "pest or weed control at 31 g/ha", "setting": "[3]; pre-emergence, Preemergence", "value": 50, "unit": "%"},
      {"measurement": "pest or weed control at 62 g/ha", "setting": "[3]; pre-emergence, Preemergence", "value": 80, "unit": "%"},
      {"measurement": "pest or weed control at 125 g/ha", "setting": "[3]; pre-emergence, Preemergence", "value": 90, "unit": "%"},
      {"measurement": "pest or weed control at 250 g/ha", "setting": "[3]; pre-emergence, Preemergence", "value": 95, "unit": "%"},
      {"measurement": "pest or weed control at 31 g/ha", "setting": "[4]; post-emergence, Postemergence", "value": 5, "unit": "%"},
      {"measurement": "pest or weed control at 62 g/ha", "setting": "[4]; post-emergence, Postemergence", "value": 5, "unit": "%"},
      {"measurement": "pest or weed control at 125 g/ha", "setting": "[4]; post-emergence, Postemergence", "value": 5, "unit": "%"},
      {"measurement": "pest or weed control at 250 g/ha", "setting": "[4]; post-emergence, Postemergence", "value": 65, "unit": "%"},
      {"measurement": "pest or weed control at 31 g/ha", "setting": "[4]; pre-emergence, Preemergence", "value": 70, "unit": "%"},
      {"measurement": "pest or weed control at 62 g/ha", "setting": "[4]; pre-emergence, Preemergence", "value": 95, "unit": "%"},
      {"measurement": "pest or weed control at 125 g/ha", "setting": "[4]; pre-emergence, Preemergence", "value": 98, "unit": "%"},
      {"measurement": "pest or weed control at 250 g/ha", "setting": "[4]; pre-emergence, Preemergence", "value": 100, "unit": "%"},
      {"measurement": "Plant response rating", "setting": "[5]; Postemergence, 31 g ai/ha", "value": 65},
      {"measurement": "Plant response rating", "setting": "[5]; Postemergence, 62 g ai/ha", "value": 65},
      {"measurement": "Plant response rating", "setting": "[5]; Postemergence, 125 g ai/ha", "value": 65},
      {"measurement": "Plant response rating", "setting": "[5]; Postemergence, 250 g ai/ha", "value": 70},
      {"measurement": "Plant response rating", "setting": "[5]; Preemergence, 31 g ai/ha", "value": 85},
      {"measurement": "Plant response rating", "setting": "[5]; Preemergence, 62 g ai/ha", "value": 85},
      {"measurement": "Plant response rating", "setting": "[5]; Preemergence, 125 g ai/ha", "value": 100},
      {"measurement": "Plant response rating", "setting": "[5]; Preemergence, 250 g ai/ha", "value": 100},
      {"measurement": "Plant response rating", "setting": "[6]; 31 g ai/ha", "value": 10},
      {"measurement": "Plant response rating", "setting": "[6]; 62 g ai/ha", "value": 15},
      {"measurement": "Plant response rating", "setting": "[6]; 125 g ai/ha", "value": 40},
      {"measurement": "Plant response rating", "setting": "[6]; 250 g ai/ha", "value": 45},
      {"measurement": "pest or weed control at 62 g/ha", "setting": "[7]; post-emergence, Postemergence", "value": 60, "unit": "%"},
      {"measurement": "pest or weed control at 125 g/ha", "setting": "[7]; post-emergence, Postemergence", "value": 60, "unit": "%"},
      {"measurement": "pest or weed control at 250 g/ha", "setting": "[7]; post-emergence, Postemergence", "value": 70, "unit": "%"},
      {"measurement": "pest or weed control at 31 g/ha", "setting": "[7]; pre-emergence, Preemergence, 31 g ai/ha", "value": 100, "unit": "%"},
      {"measurement": "pest or weed control at 62 g/ha", "setting": "[7]; pre-emergence, Preemergence", "value": 100, "unit": "%"},
      {"measurement": "pest or weed control at 125 g/ha", "setting": "[7]; pre-emergence, Preemergence", "value": 100, "unit": "%"},
      {"measurement": "pest or weed control at 250 g/ha", "setting": "[7]; pre-emergence, Preemergence", "value": 100, "unit": "%"},
      {"measurement": "pest or weed control at 31 g/ha", "setting": "[8]; post-emergence, Postemergence", "value": 40, "unit": "%"},
      {"measurement": "pest or weed control at 62 g/ha", "setting": "[8]; post-emergence, Postemergence", "value": 70, "unit": "%"},
      {"measurement": "pest or weed control at 125 g/ha", "setting": "[8]; post-emergence, Postemergence", "value": 80, "unit": "%"},
      {"measurement": "pest or weed control at 250 g/ha", "setting": "[8]; post-emergence, Postemergence", "value": 85, "unit": "%"},
      {"measurement": "pest or weed control at 31 g/ha", "setting": "[8]; pre-emergence, Preemergence", "value": 35, "unit": "%"},
      {"measurement": "pest or weed control at 62 g/ha", "setting": "[8]; pre-emergence, Preemergence", "value": 65, "unit": "%"},
      {"measurement": "pest or weed control at 125 g/ha", "setting": "[8]; pre-emergence, Preemergence", "value": 80, "unit": "%"},
      {"measurement": "pest or weed control at 250 g/ha", "setting": "[8]; pre-emergence, Preemergence", "value": 98, "unit": "%"},
      {"measurement": "plant injury at 31 g/ha", "setting": "[9]; post-emergence, Postemergence, 31 g ai/ha", "value": 5, "unit": "%"},
      {"measurement": "plant injury at 62 g/ha", "setting": "[9]; post-emergence, Postemergence", "value": 5, "unit": "%"},
      {"measurement": "plant injury at 125 g/ha", "setting": "[9]; post-emergence, Postemergence", "value": 5, "unit": "%"},
      {"measurement": "plant injury at 250 g/ha", "setting": "[9]; post-emergence, Postemergence", "value": 10, "unit": "%"},
      {"measurement": "plant injury at 62 g/ha", "setting": "[9]; pre-emergence, Preemergence", "value": 5, "unit": "%"},
      {"measurement": "plant injury at 125 g/ha", "setting": "[9]; pre-emergence, Preemergence", "value": 50, "unit": "%"},
      {"measurement": "plant injury at 250 g/ha", "setting": "[9]; pre-emergence, Preemergence", "value": 65, "unit": "%"}
    ]}
  ]
}
